Measurements taken from patent publication US6358883B1, “Pesticidal and parasiticidal use of 1-aryl-1-(substituted thio, sulfinyl and sulfonyl)-2-nitroethane compounds” (American Cyanamid Company, priority 1998, dated 2002).

Tests used:
Assay type in all cases: in vivo
[1] = system: M. incognita (Root Knot Nematode) larvae; assay: Evaluation of test compounds against M. incognita larvae in microtiter plate wells (movement score); conditions: larvae scored for movement after 20-24 hours; further: key: A score of '9' indicates inactive worms with a straight, sticklike morphology; A score of '8' indicates inactive worms with a limp, curled or curved morphology; A score of '7' indicates dead/paralyzed worms after 72 hours
Protocol: Evaluation of Test Compounds Against M. incognita (Root Knot Nematode)
Newly emerged M. incognita larvae are suspended in S Medium (buffered salt solution) to a concentration of 50-65 worms per 50 μl. 50 μl of the worm suspension are pipetted into microtiter plate wells containing the test compounds. The plates are then covered with plactic plate sealers to reduce loss of volume by evaporation. After 20-24 hours of incubation, the larvae are scored for movement. Wells containing obviously dead/paralyzed larvae are scored as positive. […] A score of “7” indicates dead/paralyzed worms after […].

[2] = system: C. elegans (Bristol strain); assay: Evaluation of test compounds against C. elegans (motility, 96-well plate); set-up: key: 9=complete kill in 4 hours; 8=complete kill in 24 hours; 7=markedly reduced motility in approximately 95% of worms in 24 hours; 0=normal motility, same as controls; conditions: motility at 4 and 24 hours
Protocol: Evaluation of Test Compounds Against C. elegans Cultures of C. elegans (Bristol strain from J. Lewis) are maintained on E. coli lawns on NG Agar Plates at 20° C. New cultures are established weekly. Nematodes for testing are washed from cultures using Na buffer. Compounds are dissolved in 80% acetone. The test material is micropipetted (25 μl) into a single well of a 96-well sterile tissue culture plate and the solvent allowed to evaporate. A freshly prepared volume (50 μl) of C. elegans in Na buffer is micropipetted into each treated well and several control wells per plate. Plates are incubated at 20° C. Observations for efficacy are made under a dissecting microscope at 4 and 24 hours post-immersion. Immediately prior to reading the plate, it is gently tapped to stimulate the movement of the worms. Activity is judged subjectively, but semi-quantitatively, based on the drug effects on motility of the adults and larvae.

[3] = system: Spodoptera eridania, 2nd instar larvae, southern armyworm (SAW); assay: Southern armyworm (SAW) leaf dip test; set-up: key: 0 = no effect; 1 = 10-25% kill; 2 = 26-35% kill; 3 = 36-45% kill; 4 = 46-55% kill; 5 = 56-65% kill; 6 = 66-75% kill; 7 = 76-85% kill; 8 = 86-99% kill; 9 = 100% kill
Protocol: (§1) Test solutions are prepared by dissolving the test compound in a 35% acetone in water mixture to give a concentration of 10,000 ppm. Subsequent dilutions are made with water as needed.
Spodoptera eridania, 2nd Instar Larvae, Southern Armyworm (SAW)
A Sieva lima bean leaf expanded to 7-8 cm in length is dipped in the test solution with agitation for 3 seconds and allowed to dry in a hood. The leaf is then placed in a 100×10 mm petri dish containing a damp filter paper on the bottom and ten 2nd instar caterpillars. At 5 days, observations are made of mortality, reduced feeding, or any interference with normal molting.

[4] = system: Diabrotica virgifera virgifera Leconte, 2nd instar western corn rootworm (WCR); assay: Western corn rootworm (WCR) soil test; set-up: key: 0 = no effect; 1 = 10-25% kill; 2 = 26-35% kill; 3 = 36-45% kill; 4 = 46-55% kill; 5 = 56-65% kill; 6 = 66-75% kill; 7 = 76-85% kill; 8 = 86-99% kill; 9 = 100% kill
Protocol: Test solutions are prepared by dissolving the test compound in a 35% acetone in water mixture to give a concentration of 10,000 ppm. Subsequent dilutions are made with water as needed. Diabrotica virgifera virgifera Leconte, 2nd Instar Western Corn Rootworm (WCR) One cc of fine talc is placed in a 30 mL wide-mouth screw-top glass jar. One mL of the appropriate acetone test solution is pipetted onto the talc so as to provide 1.25 mg of active ingredient per jar. The jars are set under a gentle air flow until the acetone is evaporated. The dried talc is loosened, 1 cc of millet seed is added to serve as food for the insects and 25 mL of moist soil is added to each jar. The jar is capped and the contents thoroughly mixed mechanically. Following this, ten 2nd instar rootworms are added to each jar and the jars are loosely capped to allow air exchange for the larvae. The treatments are held for 5 days when mortality counts are made. Missing larvae are presumed dead, since they decompose rapidly and cannot be found. The concentrations of active ingredient used in this test correspond approximately to 50 kg/ha. [table]

[5] = system: Tetranychus urticae (OP-resistant strain), 2-spotted spider mite (TSM); assay: 2-spotted spider mite (TSM) plant dip test; set-up: key: 0 = no effect; 1 = 10-25% kill; 2 = 26-35% kill; 3 = 36-45% kill; 4 = 46-55% kill; 5 = 56-65% kill; 6 = 66-75% kill; 7 = 76-85% kill; 8 = 86-99% kill; 9 = 100% kill; conditions: mortality after 2 days
Protocol: as §1
Tetranychus urticae (OP-resistant strain), 2-spotted Spider Mite (TSM)
Sieva lima bean plants with primary leaves expanded to 7-8 cm are selected and cut back to one plant per pot. A small piece is cut from an infested leaf taken from the main colony and placed on each leaf of the test plants. This is done about 2 hours before treatment to allow the mites to move over to the test plant to lay eggs. The size of the cut, infested leaf is varied to obtain about 100 mites per leaf. At the time of test treatment, the piece of leaf used to transfer the mites is removed and discarded. The newly-infested plants are dipped in the test solution for 3 seconds with agitation and set in the hood to dry. After 2 days, one leaf is removed and mortality counts are made.

[6] = system: Aphis gossypii, cotton aphid (CA); assay: Cotton aphid (CA) cotyledon dip test; set-up: key: 0 = no effect; 1 = 10-25% kill; 2 = 26-35% kill; 3 = 36-45% kill; 4 = 46-55% kill; 5 = 56-65% kill; 6 = 66-75% kill; 7 = 76-85% kill; 8 = 86-99% kill; 9 = 100% kill; conditions: mortality after 5 days
Protocol: Test solutions are prepared by dissolving the test compound in a 35% acetone in water mixture to give a concentration of 10,000 ppm. Subsequent dilutions are made with water as needed. Aphis gossypii, Cotton Aphid (CA) Cotton plants at the cotyledon stage are selected and cut back to one plant per pot. A heavily infested leaf is taken from the main colony and placed on top of each cotyledon. The aphids are allowed to transfer to the host plant overnight. At the time of test treatment, the leaf used to transfer the aphids is removed and discarded. The cotyledons are dipped in the test solution and allowed to dry. After 5 days, mortality counts are made. [table]

[7] = system: Spodoptera eridania, eggs-southern armyworm (SAW-Eggs); assay: Southern armyworm eggs (SAW-Eggs) treated diet test; set-up: key: 0 = no effect; 1 = 10-25% kill; 2 = 26-35% kill; 3 = 36-45% kill; 4 = 46-55% kill; 5 = 56-65% kill; 6 = 66-75% kill; 7 = 76-85% kill; 8 = 86-99% kill; 9 = 100% kill; conditions: mortality after 7 days
Protocol: (§2) Test solutions are prepared by dissolving the test compound in a 35% acetone in water mixture to give a concentration of 10,000 ppm. Subsequent dilutions are made with water as needed. Spodoptera eridania, Eggs-southern Armyworm and Diabrotica undecimpunctata howardi, Eggs-southern Corn Rootworm (SAW-Eggs) and (SCR-Eggs) Wells containing artificial diet are treated with the test solutions and dried. The appropriate insect eggs are then placed in the wells. The wells are covered with vented, adhesive, clear plastic covers. After 7 days, mortality counts are made. [table]

[8] = system: Diabrotica undecimpunctata howardi, eggs-southern corn rootworm (SCR-Eggs); assay: Southern corn rootworm eggs (SCR-Eggs) treated diet test; set-up: key: 0 = no effect; 1 = 10-25% kill; 2 = 26-35% kill; 3 = 36-45% kill; 4 = 46-55% kill; 5 = 56-65% kill; 6 = 66-75% kill; 7 = 76-85% kill; 8 = 86-99% kill; 9 = 100% kill; conditions: mortality after 7 days
Protocol: as §2

SMILES	M. incognita (150 ppm) score [1]	Rating Against C. elegans (150 ppm) [2]	SAW (300 ppm) rating [3]	WCR (50 ppm) rating [4]	TSM (300 ppm) rating [5]	CA (300 ppm) rating [6]	SAW Eggs (300 ppm) rating [7]	SCR Eggs (1000 ppm) rating [8]
CCOC(=O)CSC(C[N+](=O)[O-])c1ccccc1 (stereo not drawn) [Example 6]	9	8	0	7 (7 = 76-85% kill)	0	0	0	–
CCCCOC(=O)CSC(C[N+](=O)[O-])c1ccccc1 (stereo not drawn) [Example 7]	9	8	0	0	0	0	0	–
CC(C)CCCCCOC(=O)CSC(C[N+](=O)[O-])c1ccccc1 (stereo not drawn) [Example 8]	0	0	0	0	0	0	0	–
CCCCC(CC)COC(=O)CSC(C[N+](=O)[O-])c1ccccc1 (stereo not drawn) [Example 9]	0	0	0	4 (4 = 46-55% kill)	0	0	0	–
O=[N+]([O-])CC(SCc1ccccc1)c1ccccc1 (stereo not drawn) [Example 10]	0	0	0	0	0	0	0	–
CCOC(=O)CSC(C[N+](=O)[O-])c1ccccc1F (stereo not drawn) [Example 40]	9	8	3 (3 = 36-45% kill)	9 (9 = 100% kill)	0	0	–	0
CCCCOC(=O)CSC(C[N+](=O)[O-])c1ccccc1F (stereo not drawn) [Example 41]	9	7	1 (1 = 10-25% kill)	9 (9 = 100% kill)	0	0	–	0
CC(C)CCCCCOC(=O)CSC(C[N+](=O)[O-])c1ccccc1F (stereo not drawn) [Example 42]	0	0	0	6 (6 = 66-75% kill)	0	0	–	9 (9 = 100% kill)
CCCCC(CC)COC(=O)CSC(C[N+](=O)[O-])c1ccccc1F (stereo not drawn) [Example 43]	0	0	4 (4 = 46-55% kill)	7 (7 = 76-85% kill)	0	0	–	9 (9 = 100% kill)
O=[N+]([O-])CC(SCc1ccccc1)c1ccccc1F (stereo not drawn) [Example 44]	0	7	5 (5 = 56-65% kill)	4 (4 = 46-55% kill)	0	0	–	0
CCCSC(C[N+](=O)[O-])c1ccccc1F (stereo not drawn) [Example 45]	0	0	0	8 (8 = 86-99% kill)	0	0	–	7 (7 = 76-85% kill)
C=CCSC(C[N+](=O)[O-])c1ccccc1F (stereo not drawn) [Example 46]	9	7	1 (1 = 10-25% kill)	9 (9 = 100% kill)	0	0	–	0
CCOC(=O)CSC(C[N+](=O)[O-])c1ccccc1Cl (stereo not drawn) [Example 89]	8	0	0	0	0	0	–	0
CCCCOC(=O)CSC(C[N+](=O)[O-])c1ccccc1Cl (stereo not drawn) [Example 90]	8	7	0	0	3 (3 = 36-45% kill)	0	–	0
CC(C)CCCCCOC(=O)CSC(C[N+](=O)[O-])c1ccccc1Cl (stereo not drawn) [Example 91]	0	0	0	0	0	0	–	0
